Experimental data as given in patent publication US12679878B2, “CRF2 receptor agonists and their use in therapy” (SANOFI, priority 2020, dated 2026).
Where two headings read alike, the source gives them in different places. Starred links: 1 amine or outer side, 2 acyl side, 3 side chain; linkers in the order of their positions; H or OH if unused. Non-standard residues stand in square brackets, D forms with d. Residues, ends and D or L forms follow the SMILES beside them. Groups on a side chain read outwards from the residue. *: point of attachment. C20 diacid = O=C(O)CCCCCCCCCCCCCCCCCCC(=O)*; C18 diacid = O=C(O)CCCCCCCCCCCCCCCCC(=O)*; γGlu = O=C(O)[C@H](CCC(=O)[*:2])N[*:1]; AEEA = NCCOCCOCC(=O)O; Aib = CC(C)(N)C(=O)O

Biological target: T1, human CRF2α receptor (Homo sapiens, UniProt Q13324)
T1 construct: expressed in transfected cells; host or cells: TeloHEAC
T1 sequence (Q13324 1-411): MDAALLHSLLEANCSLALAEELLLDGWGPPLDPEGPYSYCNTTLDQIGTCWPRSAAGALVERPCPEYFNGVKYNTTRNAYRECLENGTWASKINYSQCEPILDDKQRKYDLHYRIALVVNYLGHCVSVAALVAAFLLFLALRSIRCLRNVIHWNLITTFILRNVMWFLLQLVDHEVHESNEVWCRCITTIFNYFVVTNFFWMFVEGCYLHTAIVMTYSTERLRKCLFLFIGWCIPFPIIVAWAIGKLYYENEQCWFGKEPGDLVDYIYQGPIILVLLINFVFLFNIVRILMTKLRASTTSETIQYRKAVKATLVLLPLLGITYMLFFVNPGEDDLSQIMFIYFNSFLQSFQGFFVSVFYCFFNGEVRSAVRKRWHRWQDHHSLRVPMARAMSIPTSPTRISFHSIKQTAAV
Test: cAMP agonism at human CRF2 α receptor in TeloHEAC cells (Example 7)
Assay type: cell-based
Settings: cAMP HTRF, TeloHEAC cells stably expressing human CRF2 α
How it was run: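 Thawed frozen stably transfected cells in HBSS/20 mM HEPES (0% or 0.1% HSA) plus 2 mM IBMX were exposed to compound at 2000 cells/well for 30 min at room temperature. Intracellular cAMP was read by HTRF (665/620 nm ratio) after 1 h lysis; EC50 was derived with 1000 nM urocortin 2 set as 100%.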

[1] = 0% HSA, read-out: EC50 [nM], 0% HSA
[2] = 0.1% HSA, read-out: EC50 [nM], 0.1% HSA

SMILES	EC50 [1] [nM]	EC50 [2] [nM]
CC[C@H](C)[C@H](N)C(=O)N[C@H](C(=O)N[C@@H](CC(C)C)C(=O)N[C@@H](CO)C(=O)N[C@@H](CC(C)C)C(=O)N[C@@H](CC(=O)O)C(=O)N[C@@H](C(=O)N1CCC[C@H]1C(=O)N[C@H](C(=O)N[C@@H](CCCCN)C(=O)N[C@@H](CC(C)C)C(=O)N[C@@H](CCCCNC(=O)COCCOCCNC(=O)COCCOCCNC(=O)CC[C@H](NC(=O)CC[C@H](NC(=O)CCCCCCCCCCCCCCCCC(=O)O)C(=O)O)C(=O)O)C(=O)N[C@@H](CCC(N)=O)C(=O)N[C@H](C(=O)N[C@@H](CC(C)C)C(=O)N[C@@H](CC(C)C)C(=O)N[C@@H](CCCCN)C(=O)N[C@@H](CCC(N)=O)C(=O)N[C@@H](CCC(=O)O)C(=O)N[C@@H](CCCNC(=N)N)C(=O)N[C@@H](CCC(N)=O)C(=O)N[C@@H](CCCCN)C(=O)N[C@@H](CCCCN)C(=O)N[C@@H](CCC(N)=O)C(=O)N[C@@H](CCCNC(=N)N)C(=O)N[C@@H](CCC(N)=O)C(=O)N[C@@H](CCC(N)=O)C(=O)N[C@@H](C)C(=O)N[C@@H](CCC(=O)O)C(=O)N[C@@H](CCCCN)C(=O)N[C@@H](CC(N)=O)C(=O)N[C@@H](CCCCN)C(=O)N[C@@H](CCC(N)=O)C(=O)N[C@H](C(=O)N[C@@H](CC(C)C)C(=O)N[C@@H](C)C(=O)N[C@@H](CCC(N)=O)C(=O)N[C@H](C(N)=O)C(C)C)[C@@H](C)CC)[C@@H](C)CC)[C@@H](C)CC)C(C)C)C(C)C [compound 176] (H-IVLSLD[dV]PIKLK([AEEA-AEEA-γGlu-γGlu-C18 diacid])QILLKQERQKKQRQQAEKNKQILAQV-NH2; N-terminus assumed)	0.11	3.05
CC[C@H](C)[C@H](N)C(=O)N[C@H](C(=O)N[C@@H](CC(C)C)C(=O)N[C@@H](CO)C(=O)N[C@@H](CC(C)C)C(=O)N[C@@H](CC(=O)O)C(=O)N[C@@H](C(=O)N1CCC[C@H]1C(=O)N[C@H](C(=O)N[C@@H](CCCCN)C(=O)N[C@@H](CC(C)C)C(=O)N[C@@H](CCCCNC(=O)COCCOCCNC(=O)COCCOCCNC(=O)CC[C@H](NC(=O)CC[C@H](NC(=O)CCCCCCCCCCCCCCCCCCC(=O)O)C(=O)O)C(=O)O)C(=O)N[C@@H](CCC(N)=O)C(=O)N[C@H](C(=O)N[C@@H](CC(C)C)C(=O)N[C@@H](CC(C)C)C(=O)N[C@@H](CCCCN)C(=O)N[C@@H](CCC(N)=O)C(=O)N[C@@H](CCC(=O)O)C(=O)N[C@@H](CCCNC(=N)N)C(=O)N[C@@H](CCC(N)=O)C(=O)N[C@@H](CCCCN)C(=O)N[C@@H](CCCCN)C(=O)N[C@@H](CCC(N)=O)C(=O)N[C@@H](CCCNC(=N)N)C(=O)N[C@@H](CCC(N)=O)C(=O)N[C@@H](CCC(N)=O)C(=O)N[C@@H](C)C(=O)N[C@@H](CCC(=O)O)C(=O)N[C@@H](CCCCN)C(=O)N[C@@H](CC(N)=O)C(=O)N[C@@H](CCCCN)C(=O)N[C@@H](CCC(N)=O)C(=O)N[C@H](C(=O)N[C@@H](CC(C)C)C(=O)N[C@@H](C)C(=O)N[C@@H](CCC(N)=O)C(=O)N[C@H](C(N)=O)C(C)C)[C@@H](C)CC)[C@@H](C)CC)[C@@H](C)CC)C(C)C)C(C)C [compound 177] (H-IVLSLD[dV]PIKLK([AEEA-AEEA-γGlu-γGlu-C20 diacid])QILLKQERQKKQRQQAEKNKQILAQV-NH2)	0.07	5.19
CC[C@H](C)[C@H](N)C(=O)N[C@H](C(=O)N[C@@H](CC(C)C)C(=O)N[C@@H](CO)C(=O)N[C@@H](CC(C)C)C(=O)N[C@@H](CC(=O)O)C(=O)N[C@@H](C(=O)N1CCC[C@H]1C(=O)N[C@H](C(=O)N[C@@H](CCCCN)C(=O)N[C@@H](CC(C)C)C(=O)N[C@@H](CCCCNC(=O)COCCOCCNC(=O)COCCOCCNC(=O)CC[C@H](NC(=O)CCCCCCCCCCCCCCCCCCC(=O)O)C(=O)O)C(=O)N[C@@H](CCC(N)=O)C(=O)N[C@H](C(=O)N[C@@H](CC(C)C)C(=O)N[C@@H](CC(C)C)C(=O)N[C@@H](CCCCN)C(=O)N[C@@H](CCC(N)=O)C(=O)N[C@@H](CCC(=O)O)C(=O)N[C@@H](CCCNC(=N)N)C(=O)N[C@@H](CCC(N)=O)C(=O)N[C@@H](CCCCN)C(=O)N[C@@H](CCCCN)C(=O)N[C@@H](CCC(N)=O)C(=O)N[C@@H](CCCNC(=N)N)C(=O)N[C@@H](CCC(N)=O)C(=O)N[C@@H](CCC(N)=O)C(=O)N[C@@H](C)C(=O)N[C@@H](CCC(=O)O)C(=O)N[C@@H](CCCCN)C(=O)N[C@@H](CC(N)=O)C(=O)N[C@@H](CCCCN)C(=O)N[C@@H](CCC(N)=O)C(=O)N[C@H](C(=O)N[C@@H](CC(C)C)C(=O)N[C@@H](C)C(=O)N[C@@H](CCC(N)=O)C(=O)N[C@H](C(N)=O)C(C)C)[C@@H](C)CC)[C@@H](C)CC)[C@@H](C)CC)C(C)C)C(C)C [compound 178] (H-IVLSLD[dV]PIKLK([AEEA-AEEA-γGlu-C20 diacid])QILLKQERQKKQRQQAEKNKQILAQV-NH2; N-terminus assumed)	0.04	3.77
CC[C@H](C)[C@H](N)C(=O)N[C@H](C(=O)N[C@@H](CC(C)C)C(=O)N[C@@H](CO)C(=O)N[C@@H](CC(C)C)C(=O)N[C@@H](CC(=O)O)C(=O)N[C@@H](C(=O)N1CCC[C@H]1C(=O)N[C@H](C(=O)N[C@@H](CCCCN)C(=O)N[C@@H](CC(C)C)C(=O)N[C@@H](CCCCNC(=O)CC[C@H](NC(=O)CCCCCCCCCCCCCCCCC(=O)O)C(=O)O)C(=O)N[C@@H](CCC(N)=O)C(=O)N[C@H](C(=O)N[C@@H](CC(C)C)C(=O)N[C@@H](CC(C)C)C(=O)N[C@@H](CCCCN)C(=O)N[C@@H](CCC(N)=O)C(=O)N[C@@H](CCC(=O)O)C(=O)N[C@@H](CCCNC(=N)N)C(=O)N[C@@H](CCC(N)=O)C(=O)N[C@@H](CCCCN)C(=O)NC(C)(C)C(=O)N[C@@H](CCC(N)=O)C(=O)N[C@@H](CCCNC(=N)N)C(=O)N[C@@H](CCC(=O)O)C(=O)N[C@@H](CCC(N)=O)C(=O)N[C@@H](C)C(=O)N[C@@H](CCC(=O)O)C(=O)N[C@@H](CCCCN)C(=O)N[C@@H](CC(N)=O)C(=O)N[C@@H](CCCCN)C(=O)N[C@@H](CCC(N)=O)C(=O)N[C@H](C(=O)N[C@@H](CC(C)C)C(=O)N[C@@H](C)C(=O)N[C@@H](CCC(N)=O)C(=O)N[C@H](C(N)=O)C(C)C)[C@@H](C)CC)[C@@H](C)CC)[C@@H](C)CC)C(C)C)C(C)C [compound 179] (H-IVLSLD[dV]PIKLK([γGlu-C18 diacid])QILLKQERQK[Aib]QREQAEKNKQILAQV-NH2; N-terminus assumed)	0.03	1.88

Continued, values first:

EC50 [1] [nM]	EC50 [2] [nM]	SMILES
0.05	1.74	CC[C@H](C)[C@H](N)C(=O)N[C@H](C(=O)N[C@@H](CC(C)C)C(=O)N[C@@H](CO)C(=O)N[C@@H](CC(C)C)C(=O)N[C@@H](CC(=O)O)C(=O)N[C@@H](C(=O)N1CCC[C@H]1C(=O)N[C@H](C(=O)N[C@@H](CCCCN)C(=O)N[C@@H](CC(C)C)C(=O)N[C@@H](CCCCNC(=O)CC[C@H](NC(=O)CCCCCCCCCCCCCCCCC(=O)O)C(=O)O)C(=O)N[C@@H](CCC(N)=O)C(=O)N[C@H](C(=O)N[C@@H](CC(C)C)C(=O)N[C@@H](CC(C)C)C(=O)N[C@@H](CCCCN)C(=O)N[C@@H](CCC(N)=O)C(=O)N[C@@H](C)C(=O)N[C@@H](CCCNC(=N)N)C(=O)N[C@@H](CCC(N)=O)C(=O)N[C@@H](CCCCN)C(=O)NC(C)(C)C(=O)N[C@@H](CCC(N)=O)C(=O)N[C@@H](CCCNC(=N)N)C(=O)N[C@@H](C)C(=O)N[C@@H](CCC(N)=O)C(=O)N[C@@H](C)C(=O)N[C@@H](CCC(=O)O)C(=O)N[C@@H](CCCCN)C(=O)N[C@@H](CC(N)=O)C(=O)N[C@@H](CCCCN)C(=O)N[C@@H](CCCNC(=N)N)C(=O)N[C@H](C(=O)N[C@@H](CC(C)C)C(=O)N[C@@H](CCC(=O)O)C(=O)N[C@@H](CCCNC(=N)N)C(=O)N[C@H](C(N)=O)C(C)C)[C@@H](C)CC)[C@@H](C)CC)[C@@H](C)CC)C(C)C)C(C)C [compound 180] (H-IVLSLD[dV]PIKLK([γGlu-C18 diacid])QILLKQARQK[Aib]QRAQAEKNKRILERV-NH2; N-terminus assumed)
1.18	15.3	CC[C@H](C)[C@H](N)C(=O)N[C@H](C(=O)N[C@@H](CC(C)C)C(=O)N[C@@H](CO)C(=O)N[C@@H](CC(C)C)C(=O)N[C@@H](CC(=O)O)C(=O)N[C@@H](C(=O)N1CCC[C@H]1C(=O)N[C@H](C(=O)N[C@@H](CCCCN)C(=O)N[C@@H](CC(C)C)C(=O)N[C@@H](CCCCNC(=O)CC[C@H](NC(=O)CCCCCCCCCCCCCCCCC(=O)O)C(=O)O)C(=O)N[C@@H](CCC(N)=O)C(=O)N[C@H](C(=O)N[C@@H](CC(C)C)C(=O)N[C@@H](CC(C)C)C(=O)N[C@@H](CCCCN)C(=O)N[C@@H](CCC(N)=O)C(=O)N[C@@H](CCC(=O)O)C(=O)N[C@@H](CCCNC(=N)N)C(=O)N[C@@H](CCC(N)=O)C(=O)N[C@@H](CCCCN)C(=O)N[C@@H](CCCCN)C(=O)N[C@@H](CCC(N)=O)C(=O)N[C@@H](CCCNC(=N)N)C(=O)N[C@@H](CCC(N)=O)C(=O)N[C@@H](CCC(N)=O)C(=O)N[C@@H](C)C(=O)N[C@@H](CCC(=O)O)C(=O)N[C@@H](CCCCN)C(=O)N[C@@H](CC(N)=O)C(=O)N[C@@H](CCCCN)C(=O)N[C@@H](CCC(N)=O)C(=O)N[C@H](C(=O)N[C@@H](CC(C)C)C(=O)N[C@@H](C)C(=O)N[C@@H](CCC(N)=O)C(=O)N[C@H](C(N)=O)C(C)C)[C@@H](C)CC)[C@@H](C)CC)[C@@H](C)CC)C(C)C)C(C)C [compound 181] (H-IVLSLD[dV]PIKLK([γGlu-C18 diacid])QILLKQERQKKQRQQAEKNKQILAQV-NH2; N-terminus assumed)
